Laboratory results taken from publication PMC11172314, “Towards Enhanced Tunability of Aqueous Biphasic Systems: Furthering the Grasp of Fluorinated Ionic Liquids in the Purification of Proteins” (International Journal of Molecular Sciences, 2024).

Target: T1, lysozyme (Lys) (Gallus gallus, UniProt P00698)
T1 construct: Lyophilized lysozyme from chicken egg white, ≥90% purity; purchased Millipore (Darmstadt, Germany); host or cells: chicken egg white (natural source)
Experiment: Far-UV CD secondary structure content of lysozyme (K2D deconvolution)
Parameters: species or system chicken; Lys α-helix content / Lys β-sheet content / Lys random coil content / α-helix content / β-sheet content / Random coil content: unit not given here
Conditions: 1.0 mg/ml Lys, 25 °C
Method: Circular dichroism (CD) spectroscopy is broadly applied to assess the secondary structure of proteins because different structural elements have characteristic CD spectra. […] For [C4C1Im][CF3SO3] (mere fluoro-containing IL), the structural content was estimated for the concentration range (0.1–200 mM). […] FIL and [ N1112(OH) ][H2PO4] […] No substantial protein structural modification upon the ABS phase-forming component addition was verified.
Circular dichroism (CD) spectra were collected in a 10 mm quartz cuvette and a Chirascan spectropolarimeter (Applied Photophysics, Leatherhead, UK) at room temperature. All CD spectra were recorded in far-UV 190 to 260 nm at scan rates of 50 nm/min, 4 accumulations, and a response time of 3 s. Each CD experiment involved the acquisition and combination of two distinct duplicates. […] Spectral deconvolution was carried out with Dichroweb using the K2D algorithm.

T1 sequence (P00698 19-147): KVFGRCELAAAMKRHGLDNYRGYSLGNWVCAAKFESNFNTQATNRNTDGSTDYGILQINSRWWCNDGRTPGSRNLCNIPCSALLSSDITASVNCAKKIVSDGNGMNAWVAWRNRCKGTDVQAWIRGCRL

## CCCCn1cc[n+](C)c1.O=S(=O)([O-])C(F)(F)F [[C4C1Im][CF3SO3]]
0.1 mM component
  Lys random coil content: 0.56
  Lys α-helix content: 0.28
  Lys β-sheet content: 0.15
1 mM component
  Lys random coil content: 0.57
  Lys α-helix content: 0.28
  Lys β-sheet content: 0.15
5 mM component
  Lys random coil content: 0.57
  Lys α-helix content: 0.28
  Lys β-sheet content: 0.15
25 mM component
  Lys random coil content: 0.57
  Lys α-helix content: 0.28
  Lys β-sheet content: 0.15
55 mM component
  Lys random coil content: 0.57
  Lys α-helix content: 0.28
  Lys β-sheet content: 0.15
90 mM component
  Lys random coil content: 0.56
  Lys α-helix content: 0.28
  Lys β-sheet content: 0.15
120 mM component
  Lys random coil content: 0.56
  Lys α-helix content: 0.28
  Lys β-sheet content: 0.15
200 mM component
  Lys random coil content: 0.55
  Lys α-helix content: 0.29
  Lys β-sheet content: 0.16
